Measurements reported in patent US11160871B2, “SSTR-targeted conjugates and particles and formulations thereof” (TARVEDA THERAPEUTICS, INC., priority 2015, dated 2021).

Legend:
[1] = Membrane permeability in Caco-2 monolayers; format: in vitro ADME; settings: human, Caco-2; Test Conc. 10 uM
Experimental: (§1) Membrane permeability of Conjugate 57 was measured in Caco-2 monolayers. The apparent permeability (Papp) was determined to be very low in both the apical to basolateral direction and the basolateral to apical direction.

[2] = tested on: Caco-2 monolayers; assay: Membrane permeability in Caco-2 monolayers; format: in vitro ADME; settings: Test Conc. 10 uM
Experimental: as §1

[3] = tested on: NCI-H524 human small cell lung cancer cells; assay: cells; format: cell-based; settings: NCI-H524 proliferation
Experimental: Conjugates of the present invention were assessed in an in vitro assay evaluating inhibition of cell proliferation. NCI-H524 (ATCC) human small cell lung cancer cells were plated in 96 well, V-bottomed plates (Costar) at a concentration of 5,000 cells/well. 24 hours later, cells were treated with either conjugate for 2 hours and further incubated 70 hours, or for octreotide competition experiments, treated with 100 μM octreotide for 30 min, and then treated with conjugate for 2 hours, and further incubated for 70 hours. Conjugate starting dose was 20 μM and three fold serial dilutions were done for a total of ten points. After 2 hours of treatment, cells were spun down, the drug containing media was removed, and fresh complete medium was added and used to resuspend the cells, which were spun again. After removal of the wash media, the cells were resuspended in complete medium, and then transferred into white walled, flat bottomed 96 well plates. […] Proliferation was measured using CellTiter Glo reagent using the standard protocol (Promega) and a Glomax multi+ detection system (Promega). Percent proliferation inhibition was calculated using the following formula: % inhibition=(control−treatment)/control*100. Control is defined as vehicle alone. IC50 curves were generated using the nonlinear regression analysis (four parameter) with GraphPad Prism 6.

[4] = tested on: NCI-H69 SCLC tumors; assay: NCI-H69 SCLC xenografts, PH3 and CC3 after a single dose; format: in vivo, mice
Experimental: Conjugate 57 was assessed in an in vivo study with NCI-H69 SCLC xenografts model. A single 2 mg/kg dose of Conjugate 57 was administered to mice bearing NCI-H69 SCLC tumors. Levels of cell cycle arrest marker phosphohistone H3 (PH3) were measured at the periphery, middle and core of the tumors. Phosphorylated histone H3 is correlated chromosome condensation during both mitosis and meiosis. […] The biological effects from Conjugate 57 were seen deep in the tumor and distant from blood vessels. Cell death peaks at around 3 days after dosing. […] Conjugates of the present invention can rapidly and deeply penetrate tumor and can exert a prolonged effect on tumor biology.

[5] = tested on: NIC-H524 tumor xenograft model (SSTR2 expressing); assay: Dose response study in NIC-H524 tumor xenograft model; format: in vivo
Experimental: A dose response study was carried out in NIC-H524 tumor xenograft model (SSTR2 expressing) with a single dose of Conjugate 57. Doses evaluated were 0.5 mg/kg, 1.0 mg/kg, and 2.0 mg/kg.

[6] = biological target: CYP1A2 (Homo sapiens, UniProt P05177); assay: CYP inhibition; format: in vitro ADME
Chain of CYP1A2 (P05177 whole entry): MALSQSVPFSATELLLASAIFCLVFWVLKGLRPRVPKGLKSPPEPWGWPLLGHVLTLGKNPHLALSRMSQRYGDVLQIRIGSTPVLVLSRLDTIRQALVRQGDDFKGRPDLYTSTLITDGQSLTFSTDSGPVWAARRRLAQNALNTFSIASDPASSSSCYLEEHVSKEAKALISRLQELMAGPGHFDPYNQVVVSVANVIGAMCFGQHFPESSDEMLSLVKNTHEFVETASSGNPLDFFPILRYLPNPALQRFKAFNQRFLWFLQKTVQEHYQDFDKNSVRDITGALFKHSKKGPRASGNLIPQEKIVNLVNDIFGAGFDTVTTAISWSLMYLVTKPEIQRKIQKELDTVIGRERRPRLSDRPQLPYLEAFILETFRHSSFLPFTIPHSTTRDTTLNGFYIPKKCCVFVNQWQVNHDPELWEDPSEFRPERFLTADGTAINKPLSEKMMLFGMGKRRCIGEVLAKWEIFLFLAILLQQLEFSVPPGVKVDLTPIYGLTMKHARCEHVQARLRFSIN
Experimental: (§2) In a further study, the potential for Conjugate 57 to inhibit cytochrome P450 (CYP) was tested across 7 isozymes of CYP enzymes. […] The data also indicate Conjugate 57 presents no risk for causing drug-drug interactions (DDIs) by inhibiting the CYP clearance of other drugs. Lack of DDIs is critical when developing combination therapies.

[7] = biological target: CYP2B6 (Homo sapiens, UniProt P20813); assay: CYP inhibition; format: in vitro ADME
Chain of CYP2B6 (P20813 whole entry): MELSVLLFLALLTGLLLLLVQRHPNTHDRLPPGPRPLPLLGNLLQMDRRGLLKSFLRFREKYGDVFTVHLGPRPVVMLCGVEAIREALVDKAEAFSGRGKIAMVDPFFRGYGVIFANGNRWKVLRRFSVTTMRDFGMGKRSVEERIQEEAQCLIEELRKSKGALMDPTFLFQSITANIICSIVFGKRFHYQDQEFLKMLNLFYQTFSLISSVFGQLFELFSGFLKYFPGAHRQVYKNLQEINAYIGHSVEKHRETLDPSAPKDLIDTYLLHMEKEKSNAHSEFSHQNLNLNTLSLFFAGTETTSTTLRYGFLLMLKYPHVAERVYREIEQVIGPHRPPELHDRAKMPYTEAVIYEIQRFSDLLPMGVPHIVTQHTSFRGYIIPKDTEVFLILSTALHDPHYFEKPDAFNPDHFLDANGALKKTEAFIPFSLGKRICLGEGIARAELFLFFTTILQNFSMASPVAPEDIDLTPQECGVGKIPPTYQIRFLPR
Experimental: as §2

[8] = biological target: CYP2C19 (Homo sapiens, UniProt P33261); assay: CYP inhibition; format: in vitro ADME
Chain of CYP2C19 (P33261 whole entry): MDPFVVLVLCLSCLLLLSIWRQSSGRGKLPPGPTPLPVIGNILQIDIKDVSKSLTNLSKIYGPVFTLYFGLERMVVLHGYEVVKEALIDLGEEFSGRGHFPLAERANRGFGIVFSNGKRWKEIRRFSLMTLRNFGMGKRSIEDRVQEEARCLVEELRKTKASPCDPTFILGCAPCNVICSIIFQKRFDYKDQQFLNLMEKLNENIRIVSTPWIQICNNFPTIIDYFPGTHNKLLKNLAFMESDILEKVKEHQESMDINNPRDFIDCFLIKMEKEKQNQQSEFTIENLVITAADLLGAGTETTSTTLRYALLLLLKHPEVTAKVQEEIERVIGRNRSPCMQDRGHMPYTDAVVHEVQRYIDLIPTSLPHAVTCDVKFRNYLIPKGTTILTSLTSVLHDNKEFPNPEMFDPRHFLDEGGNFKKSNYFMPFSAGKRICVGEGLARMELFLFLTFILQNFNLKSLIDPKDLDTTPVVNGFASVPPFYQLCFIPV
Experimental: as §2

[9] = biological target: CYP2C8 (Homo sapiens, UniProt P10632); assay: CYP inhibition; format: in vitro ADME
Chain of CYP2C8 (P10632 whole entry): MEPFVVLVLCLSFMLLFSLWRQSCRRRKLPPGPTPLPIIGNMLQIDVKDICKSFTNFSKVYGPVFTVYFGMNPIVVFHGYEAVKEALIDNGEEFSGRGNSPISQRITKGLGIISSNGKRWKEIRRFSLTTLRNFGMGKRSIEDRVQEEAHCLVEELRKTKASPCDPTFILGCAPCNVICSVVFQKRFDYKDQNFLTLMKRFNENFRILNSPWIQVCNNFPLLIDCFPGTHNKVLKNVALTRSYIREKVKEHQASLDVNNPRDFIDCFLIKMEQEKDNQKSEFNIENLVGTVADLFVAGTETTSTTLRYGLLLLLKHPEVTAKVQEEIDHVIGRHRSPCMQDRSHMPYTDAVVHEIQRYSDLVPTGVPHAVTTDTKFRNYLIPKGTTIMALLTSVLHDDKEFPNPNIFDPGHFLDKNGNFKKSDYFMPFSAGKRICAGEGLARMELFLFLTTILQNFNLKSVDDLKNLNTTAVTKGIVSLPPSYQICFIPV
Experimental: as §2

[10] = biological target: CYP2C9 (Homo sapiens, UniProt P11712); assay: CYP inhibition; format: in vitro ADME
Chain of CYP2C9 (P11712 whole entry): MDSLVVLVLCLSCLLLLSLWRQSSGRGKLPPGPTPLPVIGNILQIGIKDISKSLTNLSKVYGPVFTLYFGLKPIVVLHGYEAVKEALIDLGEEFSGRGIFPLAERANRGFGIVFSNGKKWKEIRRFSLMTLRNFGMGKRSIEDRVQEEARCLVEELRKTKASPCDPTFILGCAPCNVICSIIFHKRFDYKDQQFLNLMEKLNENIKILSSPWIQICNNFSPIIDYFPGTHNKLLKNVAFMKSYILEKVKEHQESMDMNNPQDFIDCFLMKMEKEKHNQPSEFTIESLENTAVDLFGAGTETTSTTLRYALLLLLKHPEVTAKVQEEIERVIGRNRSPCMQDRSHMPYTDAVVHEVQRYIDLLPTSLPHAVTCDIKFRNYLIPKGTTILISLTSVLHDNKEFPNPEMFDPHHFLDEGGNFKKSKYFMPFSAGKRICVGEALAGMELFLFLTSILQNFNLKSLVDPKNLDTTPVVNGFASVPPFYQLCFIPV
Experimental: as §2

[11] = biological target: CYP2D6 (Homo sapiens, UniProt P10635); assay: CYP inhibition; format: in vitro ADME
Chain of CYP2D6 (P10635 whole entry): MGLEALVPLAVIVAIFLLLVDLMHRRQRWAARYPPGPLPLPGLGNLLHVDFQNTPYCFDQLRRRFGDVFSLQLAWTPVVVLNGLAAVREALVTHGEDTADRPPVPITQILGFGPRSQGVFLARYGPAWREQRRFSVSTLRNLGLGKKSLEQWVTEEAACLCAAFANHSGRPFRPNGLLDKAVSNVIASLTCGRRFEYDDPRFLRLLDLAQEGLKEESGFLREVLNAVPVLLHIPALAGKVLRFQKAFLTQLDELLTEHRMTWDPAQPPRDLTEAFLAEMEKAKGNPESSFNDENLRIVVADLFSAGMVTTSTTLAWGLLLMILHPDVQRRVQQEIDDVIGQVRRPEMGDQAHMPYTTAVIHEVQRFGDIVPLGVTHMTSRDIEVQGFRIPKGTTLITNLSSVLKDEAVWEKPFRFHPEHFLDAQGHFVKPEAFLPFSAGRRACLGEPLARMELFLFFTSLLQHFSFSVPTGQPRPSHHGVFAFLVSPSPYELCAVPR
Experimental: as §2

[12] = biological target: CYP3A4 (Homo sapiens, UniProt P08684); assay: CYP inhibition; format: in vitro ADME
Chain of CYP3A4 (P08684 whole entry): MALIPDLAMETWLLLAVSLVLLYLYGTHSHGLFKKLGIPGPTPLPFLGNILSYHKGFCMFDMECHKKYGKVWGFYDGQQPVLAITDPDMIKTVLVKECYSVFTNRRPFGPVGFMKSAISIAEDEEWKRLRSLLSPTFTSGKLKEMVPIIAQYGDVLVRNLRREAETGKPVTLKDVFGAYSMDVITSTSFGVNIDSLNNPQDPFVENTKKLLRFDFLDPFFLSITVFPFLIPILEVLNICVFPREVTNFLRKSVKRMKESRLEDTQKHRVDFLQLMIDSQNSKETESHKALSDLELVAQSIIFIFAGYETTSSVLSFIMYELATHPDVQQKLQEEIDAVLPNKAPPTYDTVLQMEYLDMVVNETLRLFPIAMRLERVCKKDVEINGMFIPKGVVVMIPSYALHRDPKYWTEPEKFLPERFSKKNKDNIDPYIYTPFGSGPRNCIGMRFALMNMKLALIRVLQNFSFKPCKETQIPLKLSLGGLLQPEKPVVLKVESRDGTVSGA
Experimental: as §2

[13] = Single dose exploratory toxicity study; format: in vivo, SD female rat
Experimental: Single dose exploratory toxicity studies in SD female rat (dose 0.5 mg/kg to 1.5 mg/kg) for 7-10 days were carried out. Clinical observations, body weight, clinical blood chemistry, histopathology, and complete blood counts were assessed. In the 10-day study, DM1 (0.4 mg/kg) was compared to Conjugate 57 at an equivalent dose of DM1 (1.0 mg/kg of conjugate) and at a 50% higher dose (1.5 mg/kg of conjugate).
Decreased white blood cell (WBC) count is a known dose limiting toxicity of DM1. WBC count was tracked in all groups.
Liver toxicity is also a know dose limiting toxicity of DM1. Alanine transaminase (ALT) and aspartate aminotransferase (AST) are markers of liver toxicity and were measured in all groups.

[14] = tested on: HCC-33 (SCLC) xenografts; assay: HCC-33 (SCLC) xenografts, tumor growth inhibition (Example 13); format: in vivo; settings: for TGI % Day 5 / TGI % Day 8 / TGI % Day 12 / TGI % Day 16 / TGI % Day 20 / TGI % Day 23 / TGI % Day 27 / TGI % Day 30: dosed on Day 1 and Day 8
Experimental: The efficacy of Conjugate 57 was studied with HCC-33 (SCLC) xenografts. Conjugate 57 was dosed on Day 1 and Day 8.

[15] = single dose 0.5, 1.0 and 2.0 mg/kg
[16] = both groups (2 mg/kg and 1 mg/kg)

COc1cc2cc(c1Cl)N(C)C(=O)C[C@H](OC(=O)[C@H](C)N(C)C(=O)CCSSC[C@H](NC(=O)[C@@H]1CSSC[C@H](NC(=O)[C@H](N)Cc3ccccc3)C(=O)N[C@@H](Cc3ccc(O)cc3)C(=O)N[C@H](Cc3c[nH]c4ccccc34)C(=O)N[C@@H](CCCCN)C(=O)N[C@@H]([C@@H](C)O)C(=O)N1)C(N)=O)[C@]1(C)O[C@H]1[C@H](C)[C@@H]1C[C@@](O)(NC(=O)O1)[C@H](OC)/C=C/C=C(\C)C2 [Conjugate 57]
Papp A→B at 10 uM [1]: 0.018 ×10⁻⁶ cm/s
Papp B→A at 10 uM [1]: 0.094 ×10⁻⁶ cm/s
Mean A→B Papp [2]: very low
Mean B→A Papp [2]: very low
difference in IC50 with or without octreotide competition [3]: 12.2 fold
PH3 levels at periphery, middle and core of the tumors ([4]; single 2 mg/kg dose): Elevated levels of PH3 are seen at all depths of the tumor through 72 h
time of peak cell death (cleaved caspase-3) ([4]; single dose of 2 mg/kg): around 3 days
dose response (tumor volume) [5, 15]: clear dose response
tolerability (body weight change) [5, 15]: all doses are well-tolerated
tumor response (tumor volume) ([5]; single dose of 2 mg/kg): significant regression
IC50 [6]: > 10 µM
IC50 [7]: > 10 µM
IC50 [8]: > 10 µM
IC50 [9]: > 10 µM
IC50 [10]: > 10 µM
IC50 [11]: > 10 µM
IC50 ([12]; CYP3A4 Midazolam): > 10 µM
IC50 ([12]; CYP3A4 Testosterone): > 10 µM
AST and ALT ([13]; 1.0 mg/kg): no effects on AST and ALT
Day 5 weight change (%) ([13]; 1.0 mg/kg): −0.73%
Day 10 weight change (%) ([13]; 1.0 mg/kg): +1.8%
complete blood count (CBC) and WBC count ([13]; 1.0 mg/kg and […]): no significant changes in complete blood count (CBC) and WBC count
tolerability ([13]; 1.0 and […] versus DM1 0.4 mg/kg, 10-day study): significantly improved tolerability versus DM1
TGI % Day 5 ([14]; 1 mg/kg): 46.2%
TGI % Day 8 ([14]; 1 mg/kg): 71.3%
TGI % Day 12 ([14]; 1 mg/kg): 87.2%
TGI % Day 16 ([14]; 1 mg/kg): 96.3%
TGI % Day 20 ([14]; 1 mg/kg): 98.1%
TGI % Day 23 ([14]; 1 mg/kg): 99.2%
TGI % Day 27 ([14]; 1 mg/kg): 99.6%
TGI % Day 30 ([14]; 1 mg/kg): 99.6%
TGI % Day 5 ([14]; 2 mg/kg): 47%
TGI % Day 8 ([14]; 2 mg/kg): 74.8%
TGI % Day 12 ([14]; 2 mg/kg): 88.2%
TGI % Day 16 ([14]; 2 mg/kg): 96.2%
TGI % Day 20 ([14]; 2 mg/kg): 98.3%
TGI % Day 23 ([14]; 2 mg/kg): 99.1%
TGI % Day 27 ([14]; 2 mg/kg): 99.5%
TGI % Day 30 ([14]; 2 mg/kg): 99.9%
Body weights [14, 16]: increased
Tumor regression [14, 16]: ~100%
